What was measured:
Assay in all cases: Pre-emergent control of seed germination, soil drench
Format in all cases: in vivo
Barnyard Grass = settings: for Percent Pre-Emergent Control of Seed Germination: Table IV, Barnyard Grass
Source text: (§1) Four parts by weight of the compound, 0.08 part of sorbitan trioleate (Span 85), and 0.02 part of a sorbitan monooleate polyoxyethylene derivative (Tween 80) are dipersed in 40 milliliters of acetone to produce a concentrate composition in the form of a water-dispersible liquid containing the predetermined oxirane compound as the sole active agent.
(§2) A portion of each of these concentrate compositions were separately dispersed in portions of water to provide aqueous compositions, containing 0.44 pound of the oxirane compound per 100 gallons of ultimate aqueous mixture.
(§3) The aqueous compositions were then employed for the treatment of seed beds of good agricultural soil which had been prepared and seeded with the seeds of various grass species and broadleaf plants. The grass species included white winter wheat, cultured rice, pigweeds, crabgrass, cheat grass, wild oats, Johnson grass, barnyard grass and yellow foxtail; and the broadleaf plants included corn. In the treating operations, a predetermined quantity of each of the compositions was applied to separate seedbeds as a soil drench at a rate of about 0.43 acre inch of aqueous composition per acre. The quantities were controlled to supply a substantial uniform dosage in a seedbed equivalent to 1.0, 2.0 and 5.0 pounds of the oxirane compound per acre. These dosages correspond, respectively, to a concentration, within the soil depth penetrated of about 1.6, 3.2 and 8.0 parts by weight of the oxirane compound per million parts by weight of soil. Other seedbeds were similarly seeded with the named plant species but were left untreated to serve as checks.
(§4) After about 2 weeks the seedbeds were examined to ascertain what control of the growth of seeds had been obtained.
(§5) were prepared as in Example 32 and similarly employed for the pre-emergencetreatment of various plant species.
(§6) An aqueous composition containing 2-(α,α,α -trifluoro-m-tolyl)-2-(2,2,2-trichloroethyl)oxirane was prepared as described in Example 32. The composition was then employed according to the procedures of Example 32 except that lower concentrations of the oxirane compound were employed in the composition.
(§7) The percent control of the various plant species at the employed dosage rate of the 2-(α,α,α-trifluoro-m-tolyl)- 2-(2,2,2-trichloroethyl) supplied by the composition is set forth in the following Table IV.

Pigweeds = settings: for Percent Pre-Emergent Control of Seed Germination: Table IV, Pigweeds
Source text: as §1, §2, §3, §4, §5, §6, §7

Wild Oats = settings: for Percent Pre-Emergent Control of Seed Germination: Table IV, Wild Oats
Source text: as §1, §2, §3, §4, §5, §6, §7

Yellow Foxtail = settings: for Percent Pre-Emergent Control of Seed Germination: Table IV, Yellow Foxtail
Source text: as §1, §2, §3, §4, §5, §6, §7

Crabgrass [1] = settings: Table IV, Crabgrass
Source text: as §1, §2, §3, §4, §5
(§8) Separate aqueous compositions containing the 2-(m-chlorophenyl)-2-(2,2,2-trichloroethyl)oxirane (Cmpd. A) and 2-(m-bromophenyl)-2-(2,2,2-trichloroethyl)oxirane (Cmpd. C) compounds of the present invention were prepared as in Example 32 for comparative per-emergence herbicide tests against noxious grass species with the known 2 -(p-chlorophenyl)-2-(2,2,2-trichloroethyl)oxirane (Cmpd. B) compound and 2-(p-bromophenyl)-2-(2,2,2-trichloroethyl)oxirane (Cmpd. D). The pre-emergence tests were conducted in Example 32 and the results of such tests are set forth below in Table III.
as §6, §7

Johnson Grass = settings: Table IV, Johnson Grass
Source text: as §1, §2, §3, §4, §5, §8, §6, §7

Beans = settings: Table IV
Source text: as §1, §2, §3, §4, §6, §7

Cultured Rice = settings: Table IV
Source text: as §1, §2, §3, §4, §6, §7

White Winter Wheat = settings: Table IV
Source text: as §1, §2, §3, §4, §6, §7

Corn = settings: Table IV
Source text: as §1, §2, §3
After about 2 weeks the seedbeds were examined to ascertain what control of the growth of seeds had been obtained. […]
as §6, §7

Soybeans = settings: Table IV
Cotton = settings: Table IV
Source text: as §1, §2, §3, §4, §8, §6, §7

Crabgrass [2] = settings: 20 pounds per acre

FC(F)(F)c1cccc(C2(CC(Cl)(Cl)Cl)CO2)c1 (stereo not drawn) [Example 4, 2-(α,α,α -trifluoro-m-tolyl)-2-(2,2,2-trichloroethyl)oxirane]
Percent Pre-Emergent Control of Seed Germination (Barnyard Grass; 0.03 pounds): 50% | Percent Pre-Emergent Control of Seed Germination (Barnyard Grass; 0.07 pounds): 95% | Percent Pre-Emergent Control of Seed Germination (Barnyard Grass; 0.13 pounds): 95% | Percent Pre-Emergent Control of Seed Germination (Barnyard Grass; 0.25 pounds): 95% | Percent Pre-Emergent Control of Seed Germination (Barnyard Grass; 0.5 pounds): 95% | Percent Pre-Emergent Control of Seed Germination (Barnyard Grass; 1.0 pounds): 95% | Percent Pre-Emergent Control of Seed Germination (Pigweeds; 0.03 pounds): 0% | Percent Pre-Emergent Control of Seed Germination (Pigweeds; 0.07 pounds): 30% | Percent Pre-Emergent Control of Seed Germination (Pigweeds; 0.13 pounds): 50% | Percent Pre-Emergent Control of Seed Germination (Pigweeds; 0.25 pounds): 100% | Percent Pre-Emergent Control of Seed Germination (Pigweeds; 0.5 pounds): 100% | Percent Pre-Emergent Control of Seed Germination (Pigweeds; 1.0 pounds): 100% | Percent Pre-Emergent Control of Seed Germination (Wild Oats; 0.03 pounds): 30% | Percent Pre-Emergent Control of Seed Germination (Wild Oats; 0.07 pounds): 85% | Percent Pre-Emergent Control of Seed Germination (Wild Oats; 0.13 pounds): 95% | Percent Pre-Emergent Control of Seed Germination (Wild Oats; 0.25 pounds): 95% | Percent Pre-Emergent Control of Seed Germination (Wild Oats; 0.5 pounds): 95% | Percent Pre-Emergent Control of Seed Germination (Wild Oats; 1.0 pounds): 95% | Percent Pre-Emergent Control of Seed Germination (Yellow Foxtail; 0.03 pounds): 30% | Percent Pre-Emergent Control of Seed Germination (Yellow Foxtail; 0.07 pounds): 0% | Percent Pre-Emergent Control of Seed Germination (Yellow Foxtail; 0.13 pounds): 95% | Percent Pre-Emergent Control of Seed Germination (Yellow Foxtail; 0.25 pounds): 100% | Percent Pre-Emergent Control of Seed Germination (Yellow Foxtail; 0.5 pounds): 100% | Percent Pre-Emergent Control of Seed Germination (Yellow Foxtail; 1.0 pounds): 100% | Percent Pre-Emergent Control of Seed Germination (Crabgrass [1]; 0.03 pounds): 60% | Percent Pre-Emergent Control of Seed Germination (Crabgrass [1]; 0.07 pounds): 75% | Percent Pre-Emergent Control of Seed Germination (Crabgrass [1]; 0.13 pounds): 100% | Percent Pre-Emergent Control of Seed Germination (Crabgrass [1]; 0.25 pounds): 100% | Percent Pre-Emergent Control of Seed Germination (Crabgrass [1]; 0.5 pounds): 100% | Percent Pre-Emergent Control of Seed Germination (Crabgrass [1]; 1.0 pounds): 100% | Percent Pre-Emergent Control of Seed Germination (Johnson Grass; 0.03 pounds): 0% | Percent Pre-Emergent Control of Seed Germination (Johnson Grass; 0.07 pounds): 80% | Percent Pre-Emergent Control of Seed Germination (Johnson Grass; 0.13 pounds): 100% | Percent Pre-Emergent Control of Seed Germination (Johnson Grass; 0.25 pounds): 100% | Percent Pre-Emergent Control of Seed Germination (Johnson Grass; 0.5 pounds): 100% | Percent Pre-Emergent Control of Seed Germination (Johnson Grass; 1.0 pounds): 100% | Percent Pre-Emergent Control of Seed Germination (Beans; 0.03 pounds): 30% | Percent Pre-Emergent Control of Seed Germination (Beans; 0.07 pounds): 30% | Percent Pre-Emergent Control of Seed Germination (Beans; 0.13 pounds): 30% | Percent Pre-Emergent Control of Seed Germination (Beans; 0.25 pounds): 60% | Percent Pre-Emergent Control of Seed Germination (Beans; 0.5 pounds): 70% | Percent Pre-Emergent Control of Seed Germination (Beans; 1.0 pounds): 95% | Percent Pre-Emergent Control of Seed Germination (Cultured Rice; 0.03 pounds): 0% | Percent Pre-Emergent Control of Seed Germination (Cultured Rice; 0.07 pounds): 30% | Percent Pre-Emergent Control of Seed Germination (Cultured Rice; 0.13 pounds): 100% | Percent Pre-Emergent Control of Seed Germination (Cultured Rice; 0.25 pounds): 100% | Percent Pre-Emergent Control of Seed Germination (Cultured Rice; 0.5 pounds): 100% | Percent Pre-Emergent Control of Seed Germination (Cultured Rice; 1.0 pounds): 100% | Percent Pre-Emergent Control of Seed Germination (White Winter Wheat; 0.03 pounds): 0% | Percent Pre-Emergent Control of Seed Germination (White Winter Wheat; 0.07 pounds): 50% | Percent Pre-Emergent Control of Seed Germination (White Winter Wheat; 0.13 pounds): 100% | Percent Pre-Emergent Control of Seed Germination (White Winter Wheat; 0.25 pounds): 100% | Percent Pre-Emergent Control of Seed Germination (White Winter Wheat; 0.5 pounds): 100% | Percent Pre-Emergent Control of Seed Germination (White Winter Wheat; 1.0 pounds): 100% | Percent Pre-Emergent Control of Seed Germination (Corn; 0.03 pounds): 0% | Percent Pre-Emergent Control of Seed Germination (Corn; 0.07 pounds): 0% | Percent Pre-Emergent Control of Seed Germination (Corn; 0.13 pounds): 0% | Percent Pre-Emergent Control of Seed Germination (Corn; 0.25 pounds): 90% | Percent Pre-Emergent Control of Seed Germination (Corn; 0.5 pounds): 95% | Percent Pre-Emergent Control of Seed Germination (Corn; 1.0 pounds): 95% | Percent Pre-Emergent Control of Seed Germination (Soybeans; 0.03 pounds): 0% | Percent Pre-Emergent Control of Seed Germination (Soybeans; 0.07 pounds): 0% | Percent Pre-Emergent Control of Seed Germination (Soybeans; 0.13 pounds): 100% | Percent Pre-Emergent Control of Seed Germination (Soybeans; 0.25 pounds): 40% | Percent Pre-Emergent Control of Seed Germination (Soybeans; 0.5 pounds): 50% | Percent Pre-Emergent Control of Seed Germination (Soybeans; 1.0 pounds): 60% | Percent Pre-Emergent Control of Seed Germination (Cotton; 0.03 pounds): 0% | Percent Pre-Emergent Control of Seed Germination (Cotton; 0.07 pounds): 0% | Percent Pre-Emergent Control of Seed Germination (Cotton; 0.13 pounds): 0% | Percent Pre-Emergent Control of Seed Germination (Cotton; 0.25 pounds): 0% | Percent Pre-Emergent Control of Seed Germination (Cotton; 0.5 pounds): 30% | Percent Pre-Emergent Control of Seed Germination (Cotton; 1.0 pounds): 20%

ClC(Cl)(Cl)CC1(c2cccc(OCc3ccccc3)c2)CO1 (centres unmarked) [Example 16, 2-(m-(benzyloxy)phenyl)-2-(2,2,2-trichloroethyl)oxirane]
pre-emergence control (Barnyard Grass; barnyard grass, 20 pounds per acre): substantially complete control | pre-emergence control (Pigweeds; pigweed, 20 pounds per acre): substantially complete control | pre-emergence control (Wild Oats; wild oats, 20 pounds per acre): substantially complete control | pre-emergence control (Yellow Foxtail; yellow foxtail, 20 pounds per acre): substantially complete control | pre-emergence control (Crabgrass [2]): substantially complete control

Reference: patent publication US4018801A, “Substituted oxirane compounds” (The Dow Chemical Company, priority 1975, dated 1977)
